Article PMC6107497

Experiment: Pd(II)-catalysed intramolecular ortho C(sp2)-H olefination (oxidative Heck-type aryl-alkenyl C-C bond) of peptide aryl/benzyl/thienyl sulfonamides with pendant acrylate or unactivated terminal alkene; Pd(OAc)2 10 mol%, AgOAc 2.0 equiv
Conditions: 1,2-dichloroethane (DCE), 50.0 mM, 80.0 °C, 24.0 h

COC(=O)[C@@H]1COC(=O)C=Cc2ccsc2S(=O)(=O)N[C@@H](COC(C)(C)C)C(=O)NCC(=O)N2CCC[C@H]2C(=O)N1 [(thiophene-2-SO2)-Ser(tBu)-Gly-Pro-Ser(O-acryloyl)-OMe]
ring closure, isolated yield (from C=CC(=O)OC[C@H](NC(=O)[C@@H]1CCCN1C(=O)CNC(=O)[C@H](COC(C)(C)C)NS(=O)(=O)c1cccs1)C(=O)OC, 19-membered ring): 53%

COC(=O)[C@@H]1COC(=O)C=Cc2ccsc2S(=O)(=O)N[C@@H](C(C)(C)C)C(=O)NCC(=O)N2CCC[C@H]2C(=O)N1 [(thiophene-2-SO2)-tLeu-Gly-Pro-Ser(O-acryloyl)-OMe]
ring closure, isolated yield (from C=CC(=O)OC[C@H](NC(=O)[C@@H]1CCCN1C(=O)CNC(=O)[C@@H](NS(=O)(=O)c1cccs1)C(C)(C)C)C(=O)OC, 19-membered ring): 59%

COC(=O)[C@@H]1COC(=O)C=Cc2ccccc2CS(=O)(=O)N[C@@H](C(C)(C)C)C(=O)NCC(=O)NCC(=O)NCC(=O)N1 [PhCH2SO2-tLeu-Gly-Gly-Gly-Ser(O-acryloyl)-OMe]
ring closure, isolated yield (from C=CC(=O)OC[C@H](NC(=O)CNC(=O)CNC(=O)CNC(=O)[C@@H](NS(=O)(=O)Cc1ccccc1)C(C)(C)C)C(=O)OC, 23-membered ring): 34%

COC(=O)[C@@H]1COC(=O)C=Cc2ccccc2CS(=O)(=O)N[C@@H](C(C)(C)C)C(=O)NCC(=O)NCC(=O)N1 [PhCH2SO2-tLeu-Gly-Gly-Ser(O-acryloyl)-OMe]
ring closure, isolated yield (from C=CC(=O)OC[C@H](NC(=O)CNC(=O)CNC(=O)[C@@H](NS(=O)(=O)Cc1ccccc1)C(C)(C)C)C(=O)OC, 20-membered ring): 45%

COC(=O)[C@@H]1Cc2ccc(cc2)OC(=O)C=Cc2ccccc2CS(=O)(=O)N[C@@H](C(C)(C)C)C(=O)NCC(=O)N2CCC[C@H]2C(=O)N1 [PhCH2SO2-tLeu-Gly-Pro-Tyr(O-acryloyl)-OMe]
ring closure, isolated yield (from C=CC(=O)Oc1ccc(C[C@H](NC(=O)[C@@H]2CCCN2C(=O)CNC(=O)[C@@H](NS(=O)(=O)Cc2ccccc2)C(C)(C)C)C(=O)OC)cc1, 24-membered ring): 72%

COC(=O)[C@@H]1COC(=O)C=Cc2ccccc2CS(=O)(=O)N[C@@H](C(C)(C)C)C(=O)NCC(=O)N1 [PhCH2SO2-tLeu-Gly-Ser(O-acryloyl)-OMe]
ring closure, isolated yield (from C=CC(=O)OC[C@H](NC(=O)CNC(=O)[C@@H](NS(=O)(=O)Cc1ccccc1)C(C)(C)C)C(=O)OC, 17-membered ring): 58%

COC(=O)[C@@H]1COC(=O)CCC=Cc2ccccc2CS(=O)(=O)N[C@@H](C(C)(C)C)C(=O)NCC(=O)N1 [PhCH2SO2-tLeu-Gly-Ser(O-pent-4-enoyl)-OMe]
ring closure, isolated yield (from C=CCCC(=O)OC[C@H](NC(=O)CNC(=O)[C@@H](NS(=O)(=O)Cc1ccccc1)C(C)(C)C)C(=O)OC, 19-membered ring): 53%

COC(=O)[C@@H]1COC(=O)C=Cc2ccccc2CS(=O)(=O)N[C@@H](C(C)(C)C)C(=O)N1 [PhCH2SO2-tLeu-Ser(O-acryloyl)-OMe]
ring closure, isolated yield (from C=CC(=O)OC[C@H](NC(=O)[C@@H](NS(=O)(=O)Cc1ccccc1)C(C)(C)C)C(=O)OC, 14-membered ring): 52%

COC(=O)[C@@H]1COC(=O)C=Cc2ccccc2S(=O)(=O)N[C@@H](C(C)(C)C)C(=O)NCC(=O)N2CCC[C@H]2C(=O)N1 [PhSO2-tLeu-Gly-Pro-Ser(O-acryloyl)-OMe]
ring closure, isolated yield (from C=CC(=O)OC[C@H](NC(=O)[C@@H]1CCCN1C(=O)CNC(=O)[C@@H](NS(=O)(=O)c1ccccc1)C(C)(C)C)C(=O)OC, 19-membered ring): 67%

COC(=O)[C@@H]1Cc2ccc(cc2)OCC=Cc2ccccc2S(=O)(=O)N[C@@H](C(C)(C)C)C(=O)NCC(=O)N2CCC[C@H]2C(=O)N1 [PhSO2-tLeu-Gly-Pro-Tyr(O-allyl)-OMe]
ring closure, isolated yield (from C=CCOc1ccc(C[C@H](NC(=O)[C@@H]2CCCN2C(=O)CNC(=O)[C@@H](NS(=O)(=O)c2ccccc2)C(C)(C)C)C(=O)OC)cc1, 23-membered ring): 61%
